Source: patent US11969428B2, “Methods and pharmaceutical compositions for treating lymphoid malignancy” (priority 2011, dated 2024)

Columns and labels:
Assay in all cases: Ambit KinomeScan screening
Type in all cases: binding
Conditions in all cases: CAL-130 10 μM
[1] = molecular target: T1, PIP5K1A (Homo sapiens, UniProt Q99755)
T1 construct: unspecified tag; purchased Ambit (KinomeScan screening panel)
Outline: (§1)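 Read-out is % of control binding: the tagged kinase retained on an immobilized bait ligand when CAL-130 is present at 10 μM. A lower percentage reflects stronger compound interaction, and anything over 35% counts as no hit.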

[2] = molecular target: T2, CHEK1 (Homo sapiens, UniProt O14757)
T2 construct: purchased Ambit (KinomeScan screening service)
T2 sequence (O14757 whole entry): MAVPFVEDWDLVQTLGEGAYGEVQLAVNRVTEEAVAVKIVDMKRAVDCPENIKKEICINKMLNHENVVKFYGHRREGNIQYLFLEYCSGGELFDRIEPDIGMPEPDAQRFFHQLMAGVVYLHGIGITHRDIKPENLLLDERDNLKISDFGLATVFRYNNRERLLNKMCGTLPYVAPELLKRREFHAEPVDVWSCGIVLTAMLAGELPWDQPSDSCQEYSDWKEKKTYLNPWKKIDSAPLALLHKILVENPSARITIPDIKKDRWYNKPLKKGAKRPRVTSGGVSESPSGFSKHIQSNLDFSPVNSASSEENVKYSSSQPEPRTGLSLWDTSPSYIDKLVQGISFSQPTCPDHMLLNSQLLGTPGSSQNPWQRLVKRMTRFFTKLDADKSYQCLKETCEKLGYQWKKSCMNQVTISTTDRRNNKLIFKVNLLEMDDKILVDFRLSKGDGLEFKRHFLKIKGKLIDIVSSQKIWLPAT
Outline: as §1

[3] = molecular target: T3, KIT (Homo sapiens, UniProt P10721)
T3 construct: purchased Ambit (KinomeScan screening)
Outline: as §1

[4] = molecular target: T4, GCN2(S808G) (Homo sapiens, UniProt Q9P2K8, S808G)
T4 construct: unspecified tag ('tagged kinases'); purchased Ambit (KinomeScan screening service)
Outline: as §1

[5] = molecular target: T5, GAK (Homo sapiens, UniProt O14976)
T5 construct: unspecified tag ('tagged kinases'); purchased Ambit (KinomeScan screening service)
Outline: as §1

[6] = molecular target: T6, FGFR3(G697C) (Homo sapiens, UniProt P22607, G697C)
T6 construct: unspecified tag; purchased Ambit (KinomeScan screening service)
Outline: as §1

[7] = tested on: PAK5
Outline: as §1

[8] = molecular target: T7, ACVR1B (Homo sapiens, UniProt P36896)
T7 construct: unspecified tag ("tagged kinases"); purchased Ambit (KinomeScan screening)
T7 sequence (P36896 24-505): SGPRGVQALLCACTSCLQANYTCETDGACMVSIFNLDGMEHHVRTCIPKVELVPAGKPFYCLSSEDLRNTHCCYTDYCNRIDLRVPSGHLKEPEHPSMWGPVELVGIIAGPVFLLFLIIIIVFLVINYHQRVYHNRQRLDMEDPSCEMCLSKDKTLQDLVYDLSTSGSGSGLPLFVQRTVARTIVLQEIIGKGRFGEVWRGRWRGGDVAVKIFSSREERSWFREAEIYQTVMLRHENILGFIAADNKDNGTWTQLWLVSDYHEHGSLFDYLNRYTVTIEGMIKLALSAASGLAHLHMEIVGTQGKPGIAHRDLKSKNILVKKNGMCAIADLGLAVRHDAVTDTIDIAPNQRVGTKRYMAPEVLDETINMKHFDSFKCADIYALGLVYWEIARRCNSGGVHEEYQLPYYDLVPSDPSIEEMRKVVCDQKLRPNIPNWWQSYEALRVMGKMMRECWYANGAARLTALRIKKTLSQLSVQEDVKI
Outline: as §1

[9] = molecular target: T8, SLK (Homo sapiens, UniProt Q9H2G2)
T8 construct: tag, kind not specified; purchased Ambit (KinomeScan screening service)
Outline: as §1

[10] = molecular target: T9, CAMK1G (Homo sapiens, UniProt Q96NX5)
T9 construct: unspecified tag ("tagged kinases"); purchased Ambit (KinomeScan screening)
Outline: as §1

[11] = molecular target: T10, ABL1(F317L) (Homo sapiens, UniProt P00519, F317L)
T10 construct: unspecified tag ("tagged kinases"); purchased Ambit (KinomeScan screening)
T10 sequence (P00519 whole entry F317L): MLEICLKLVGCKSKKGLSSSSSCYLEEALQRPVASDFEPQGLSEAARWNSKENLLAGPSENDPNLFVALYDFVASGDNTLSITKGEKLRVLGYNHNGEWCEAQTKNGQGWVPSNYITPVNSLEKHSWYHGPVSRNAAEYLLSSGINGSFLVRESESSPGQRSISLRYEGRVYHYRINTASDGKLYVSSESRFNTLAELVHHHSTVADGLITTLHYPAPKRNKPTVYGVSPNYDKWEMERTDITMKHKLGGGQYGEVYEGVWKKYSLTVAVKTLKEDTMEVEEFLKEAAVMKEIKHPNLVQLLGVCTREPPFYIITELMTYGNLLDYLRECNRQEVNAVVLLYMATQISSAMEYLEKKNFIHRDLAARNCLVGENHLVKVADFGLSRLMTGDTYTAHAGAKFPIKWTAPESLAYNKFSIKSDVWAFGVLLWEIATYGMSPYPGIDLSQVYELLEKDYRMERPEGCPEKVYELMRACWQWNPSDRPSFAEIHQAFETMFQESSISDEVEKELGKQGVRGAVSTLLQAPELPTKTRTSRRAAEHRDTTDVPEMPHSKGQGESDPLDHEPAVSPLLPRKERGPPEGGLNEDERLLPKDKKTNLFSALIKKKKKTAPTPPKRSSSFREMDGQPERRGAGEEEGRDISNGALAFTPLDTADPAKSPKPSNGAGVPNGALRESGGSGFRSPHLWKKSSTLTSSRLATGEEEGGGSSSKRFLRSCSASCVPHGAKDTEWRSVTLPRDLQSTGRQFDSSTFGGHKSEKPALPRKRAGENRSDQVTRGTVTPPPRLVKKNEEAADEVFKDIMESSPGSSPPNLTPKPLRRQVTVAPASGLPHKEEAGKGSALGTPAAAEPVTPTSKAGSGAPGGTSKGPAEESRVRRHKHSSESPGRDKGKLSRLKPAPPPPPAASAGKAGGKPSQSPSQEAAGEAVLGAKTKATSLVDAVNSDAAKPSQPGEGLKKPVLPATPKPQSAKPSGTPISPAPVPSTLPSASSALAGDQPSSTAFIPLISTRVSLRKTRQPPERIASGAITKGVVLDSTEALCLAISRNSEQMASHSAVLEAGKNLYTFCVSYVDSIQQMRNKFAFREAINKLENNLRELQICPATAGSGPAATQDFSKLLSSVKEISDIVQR
Outline: as §1

[12] = molecular target: T11, EGFR(G719S) (Homo sapiens, UniProt P00533, G719S)
T11 construct: unspecified tag; purchased Ambit (KinomeScan screening service)
Outline: as §1

[13] = molecular target: T12, BRSK2 (Homo sapiens, UniProt Q8IWQ3)
T12 construct: unspecified tag ("tagged kinases"); purchased Ambit (KinomeScan screening)
Outline: as §1

[14] = molecular target: T13, LOK (Homo sapiens, UniProt O94804)
T13 construct: unspecified tag ('tagged kinases'); purchased Ambit (KinomeScan screening service)
Outline: as §1

[15] = molecular target: T14, PKAC-α (Homo sapiens, UniProt P17612)
T14 construct: unspecified tag; purchased Ambit (KinomeScan screening panel)
Outline: as §1

[16] = molecular target: T15, NEK7 (Homo sapiens, UniProt Q8TDX7)
T15 construct: purchased Ambit (KinomeScan screening service)
Outline: as §1

[17] = molecular target: T16, CDK8 (Homo sapiens, UniProt P49336)
T16 construct: purchased Ambit (KinomeScan screening service)
T16 sequence (P49336 whole entry): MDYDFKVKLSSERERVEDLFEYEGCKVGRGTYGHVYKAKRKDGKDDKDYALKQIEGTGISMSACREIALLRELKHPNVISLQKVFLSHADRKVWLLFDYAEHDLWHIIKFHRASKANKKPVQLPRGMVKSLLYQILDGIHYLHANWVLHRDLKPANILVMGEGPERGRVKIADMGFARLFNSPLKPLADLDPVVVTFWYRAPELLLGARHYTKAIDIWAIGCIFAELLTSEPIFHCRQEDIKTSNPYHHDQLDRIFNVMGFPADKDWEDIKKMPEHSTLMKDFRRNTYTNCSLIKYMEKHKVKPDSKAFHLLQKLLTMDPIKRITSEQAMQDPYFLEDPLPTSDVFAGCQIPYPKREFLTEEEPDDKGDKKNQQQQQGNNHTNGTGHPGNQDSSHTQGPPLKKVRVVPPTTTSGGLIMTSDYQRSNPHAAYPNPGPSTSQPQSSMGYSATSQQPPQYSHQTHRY
Outline: as §1

[18] = molecular target: T17, TYK2(JH1domain) (Homo sapiens, UniProt P29597)
T17 construct: TYK2(JH1domain); tag, kind not specified; purchased Ambit (KinomeScan screening service)
Outline: as §1

[19] = molecular target: T18, EGFR(L858R, T790M) (Homo sapiens, UniProt P00533, L858R/T790M)
T18 construct: unspecified tag; purchased Ambit (KinomeScan screening service)
Outline: as §1

[20] = molecular target: T19, MAP3K1 (Homo sapiens, UniProt Q13233)
T19 construct: Ambit (KinomeScan screening)
T19 sequence (Q13233 whole entry): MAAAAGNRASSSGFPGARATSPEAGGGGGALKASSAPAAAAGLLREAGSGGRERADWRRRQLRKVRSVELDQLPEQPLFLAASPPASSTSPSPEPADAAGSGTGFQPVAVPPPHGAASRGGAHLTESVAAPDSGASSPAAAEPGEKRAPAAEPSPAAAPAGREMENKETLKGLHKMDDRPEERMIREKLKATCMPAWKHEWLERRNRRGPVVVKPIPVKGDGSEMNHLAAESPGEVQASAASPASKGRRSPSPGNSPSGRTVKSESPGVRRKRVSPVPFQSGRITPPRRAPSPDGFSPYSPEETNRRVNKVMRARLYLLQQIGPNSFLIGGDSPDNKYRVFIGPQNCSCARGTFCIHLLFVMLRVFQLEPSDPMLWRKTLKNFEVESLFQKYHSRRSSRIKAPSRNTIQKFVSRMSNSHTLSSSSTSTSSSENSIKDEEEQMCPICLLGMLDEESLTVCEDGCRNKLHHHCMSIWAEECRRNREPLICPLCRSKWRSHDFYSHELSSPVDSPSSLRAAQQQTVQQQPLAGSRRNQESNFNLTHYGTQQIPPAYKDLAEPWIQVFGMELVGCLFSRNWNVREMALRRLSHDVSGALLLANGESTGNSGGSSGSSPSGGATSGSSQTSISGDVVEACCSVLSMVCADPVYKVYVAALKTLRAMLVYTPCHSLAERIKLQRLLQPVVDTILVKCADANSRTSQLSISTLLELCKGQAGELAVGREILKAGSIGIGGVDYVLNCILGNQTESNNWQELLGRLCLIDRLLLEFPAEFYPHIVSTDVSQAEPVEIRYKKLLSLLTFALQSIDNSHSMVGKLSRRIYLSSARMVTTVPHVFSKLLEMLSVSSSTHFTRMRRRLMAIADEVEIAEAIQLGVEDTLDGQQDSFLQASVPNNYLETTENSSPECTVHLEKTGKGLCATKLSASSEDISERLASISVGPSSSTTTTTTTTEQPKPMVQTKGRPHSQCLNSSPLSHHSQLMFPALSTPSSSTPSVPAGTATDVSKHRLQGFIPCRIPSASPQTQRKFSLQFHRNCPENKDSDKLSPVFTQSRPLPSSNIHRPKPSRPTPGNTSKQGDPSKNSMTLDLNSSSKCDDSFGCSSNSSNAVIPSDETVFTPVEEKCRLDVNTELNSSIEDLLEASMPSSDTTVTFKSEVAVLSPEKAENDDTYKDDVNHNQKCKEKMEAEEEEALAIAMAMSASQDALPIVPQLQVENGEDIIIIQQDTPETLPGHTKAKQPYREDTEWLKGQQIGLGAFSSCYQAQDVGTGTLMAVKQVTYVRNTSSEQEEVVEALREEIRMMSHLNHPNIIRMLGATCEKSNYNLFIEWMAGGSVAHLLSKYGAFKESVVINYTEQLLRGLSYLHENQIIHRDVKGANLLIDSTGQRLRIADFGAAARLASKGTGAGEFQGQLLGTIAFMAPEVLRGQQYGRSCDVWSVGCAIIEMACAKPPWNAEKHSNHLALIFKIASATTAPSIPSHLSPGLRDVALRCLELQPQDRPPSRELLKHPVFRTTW
Outline: as §1

[21] = molecular target: T20, MLK3 (Homo sapiens, UniProt Q16584)
T20 construct: unspecified tag ('tagged kinases'); purchased Ambit (KinomeScan screening)
Outline: as §1

[22] = molecular target: T21, MAP3K15 (Homo sapiens, UniProt Q6ZN16)
T21 construct: Ambit (KinomeScan screening)
Outline: as §1

[23] = molecular target: T22, EGFR(S752-I759DEL) (Homo sapiens, UniProt P00533, DEL752-759)
T22 construct: unspecified tag; purchased Ambit (KinomeScan screening service)
Outline: as §1

[24] = molecular target: T23, MAP3K3 (Homo sapiens, UniProt Q99759)
T23 construct: Ambit (KinomeScan screening)
Outline: as §1

[25] = molecular target: T24, PRKR (Homo sapiens, UniProt P19525)
T24 construct: tag (kind not specified); purchased Ambit (KinomeScan screening service)
Outline: as §1

[26] = molecular target: T25, ROCK2 (Homo sapiens, UniProt O75116)
T25 construct: unspecified tag (tagged kinase); purchased Ambit (KinomeScan screening)
Outline: as §1

[27] = molecular target: T26, CSK (Homo sapiens, UniProt P41240)
T26 construct: purchased Ambit (KinomeScan screening service)
Outline: as §1

[28] = molecular target: T27, EPHB2 (Homo sapiens, UniProt P29323)
T27 construct: purchased Ambit (KinomeScan screening service)
T27 sequence (P29323 19-1055): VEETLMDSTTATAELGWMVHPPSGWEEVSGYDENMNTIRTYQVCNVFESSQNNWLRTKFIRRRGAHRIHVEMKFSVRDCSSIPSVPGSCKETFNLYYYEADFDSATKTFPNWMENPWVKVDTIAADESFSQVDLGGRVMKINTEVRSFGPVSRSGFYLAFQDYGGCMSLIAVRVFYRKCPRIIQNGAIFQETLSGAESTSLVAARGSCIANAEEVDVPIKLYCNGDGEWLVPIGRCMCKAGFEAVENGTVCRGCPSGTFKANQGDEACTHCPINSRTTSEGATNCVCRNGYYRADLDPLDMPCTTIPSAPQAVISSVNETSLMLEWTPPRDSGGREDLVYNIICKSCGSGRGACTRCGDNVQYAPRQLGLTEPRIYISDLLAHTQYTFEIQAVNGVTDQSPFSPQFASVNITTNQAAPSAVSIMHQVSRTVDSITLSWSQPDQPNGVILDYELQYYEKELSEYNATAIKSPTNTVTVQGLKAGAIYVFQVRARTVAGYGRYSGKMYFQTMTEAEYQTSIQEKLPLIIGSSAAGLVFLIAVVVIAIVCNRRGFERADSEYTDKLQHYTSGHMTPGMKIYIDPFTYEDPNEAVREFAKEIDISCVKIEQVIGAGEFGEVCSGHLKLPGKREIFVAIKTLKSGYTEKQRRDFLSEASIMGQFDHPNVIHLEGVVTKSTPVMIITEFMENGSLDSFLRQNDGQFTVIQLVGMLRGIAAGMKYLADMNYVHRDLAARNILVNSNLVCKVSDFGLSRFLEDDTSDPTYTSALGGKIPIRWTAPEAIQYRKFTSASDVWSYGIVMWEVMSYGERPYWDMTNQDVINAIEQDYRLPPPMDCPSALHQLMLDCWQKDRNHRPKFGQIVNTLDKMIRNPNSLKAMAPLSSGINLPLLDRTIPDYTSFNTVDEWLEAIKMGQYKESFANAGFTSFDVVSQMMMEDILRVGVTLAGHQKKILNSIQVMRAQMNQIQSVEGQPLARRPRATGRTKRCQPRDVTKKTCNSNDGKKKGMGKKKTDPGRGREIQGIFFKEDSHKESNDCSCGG
Outline: as §1

[29] = molecular target: T28, HPK1 (Homo sapiens, UniProt Q92918)
T28 construct: Ambit (KinomeScan screening)
Outline: as §1

[30] = molecular target: T29, SIK (Homo sapiens, UniProt P57059)
T29 construct: tag, kind not specified; purchased Ambit (KinomeScan screening service)
Outline: as §1

[31] = molecular target: T30, ALK (Homo sapiens, UniProt Q9UM73)
T30 construct: purchased Ambit (KinomeScan screening)
Outline: as §1

[32] = molecular target: T31, EPHA4 (Homo sapiens, UniProt P54764)
T31 construct: purchased Ambit (KinomeScan screening service)
Outline: as §1

[33] = molecular target: T32, NEK2 (Homo sapiens, UniProt P51955)
T32 construct: unspecified tag; purchased Ambit (KinomeScan screening panel)
Outline: as §1

[34] = molecular target: T33, CAMK1D (Homo sapiens, UniProt Q8IU85)
T33 construct: unspecified tag ("tagged kinases"); purchased Ambit (KinomeScan screening)
Outline: as §1

[35] = molecular target: T34, PRKG1 (Homo sapiens, UniProt Q13976)
T34 construct: tag (kind not specified); purchased Ambit (KinomeScan screening service)
Outline: as §1

Measured: Percent of Control Binding

Cc1ccccc1-n1c(C(C)Nc2nc(N)nc3nc[nH]c23)nc2cccc(C)c2c1=O (centres unmarked) [CAL-130]
100%: all assays above
